Measured values reported in patent US4346076A, “Bis-tetrazoylmethyl substituted cephalosporin antibiotics” (Eli Lilly and Company, priority 1980, dated 1982).
In brackets after ≈: the same amount, converted by molar mass. Where two headings read alike, the source gives them in different places.

Columns and labels:
Test in all cases: in vitro antibacterial activity, agar dilution
Type in all cases: cell-based
Escherichia coli = test system: Escherichia coli
Source text: (§1) The bis-tetrazol-thiomethyl substituted cephalosporins of this invention are broad spectrum antibiotics which inhibit the growth of both gram positive and gram negative microorganisms which are pathogenic to man and animals. […] The following Table 2 lists the minimum inhibitory concentrations of representative compounds of the invention.
(§2) The data in TABLE 2 were obtained in the agar dilution test method using Mueller-Hinton agar containing two percent Supplement C (Difco). Serial two-fold dilutions were run with the highest concentration on test at 128 mcg/ml.

Proteus morganii = conditions: Morganella morganii; strain PR15; read-out: Minimum Inhibitory Concentration
Source text: as §1, §2

Enterobacter cloacae = test system: Enterobacter cloacae
Source text: as §1, §2

Staphylococcus aureus = test system: Staphylococcus aureus
Source text: as §1, §2

Proteus rettgeri = conditions: Providencia rettgeri, read-out: Minimum Inhibitory Concentration
Source text: as §1, §2

Shigella sonnei = conditions: strain N9, read-out: Minimum Inhibitory Concentration
Source text: as §1, §2

Streptococcus Group A = conditions: strain C203; read-out: Minimum Inhibitory Concentration
Source text: as §1, §2

Serratia marcescens = test system: Serratia marcescens
Source text: as §1, §2

Enterobacter aerogenes = conditions: Klebsiella aerogenes, read-out: Minimum Inhibitory Concentration
Source text: as §1, §2

Streptococcus pneumoniae = conditions: strain PARK, read-out: Minimum Inhibitory Concentration
Source text: as §1, §2

Citrobacter freundii = conditions: strain CF17, read-out: Minimum Inhibitory Concentration
Source text: as §1, §2

Streptococcus Group D = conditions: read-out: Minimum Inhibitory Concentration
Source text: as §1, §2

Pseudomonas aeruginosa = test system: Pseudomonas aeruginosa
Source text: as §1, §2

[1] = test system: Staphylococcus epidermidis
Source text: as §1, §2

Haemophilus influenzae = conditions: Haemophilus influenzae, read-out: Minimum Inhibitory Concentration
Source text: as §1, §2

[2] = test system: Bordetella bronchoseptica; conditions: strain 16, read-out: Minimum Inhibitory Concentration
Source text: as §1, §2

Klebsiella sp. = test system: Klebsiella sp.
Source text: as §1, §2

Proteus inconstans = conditions: Providencia alcalifaciens; strain PR33; read-out: Minimum Inhibitory Concentration
Source text: as §1, §2

Salmonella sp. = test system: Salmonella sp.
Source text: as §1, §2

[3] = strain EC14, read-out: Minimum Inhibitory Concentration
[4] = strain N10, read-out: Minimum Inhibitory Concentration
[5] = strain TEM, read-out: Minimum Inhibitory Concentration
[6] = strain 265A, read-out: Minimum Inhibitory Concentration
[7] = strain EB5, read-out: Minimum Inhibitory Concentration
[8] = read-out: Minimum Inhibitory Concentration
[9] = strain V41, read-out: Minimum Inhibitory Concentration
[10] = strain X1.1, read-out: Minimum Inhibitory Concentration
[11] = strain X400, read-out: Minimum Inhibitory Concentration
[12] = strain SE3, read-out: Minimum Inhibitory Concentration
[13] = strain X93, read-out: Minimum Inhibitory Concentration
[14] = strain Ps18, read-out: Minimum Inhibitory Concentration
[15] = strain X239, read-out: Minimum Inhibitory Concentration
[16] = strain X528, read-out: Minimum Inhibitory Concentration
[17] = strain EPI1, read-out: Minimum Inhibitory Concentration
[18] = strain EPI2, read-out: Minimum Inhibitory Concentration
[19] = strain KAE, read-out: Minimum Inhibitory Concentration
[20] = strain X26, read-out: Minimum Inhibitory Concentration
[21] = strain 1335, read-out: Minimum Inhibitory Concentration
[22] = strain X514, read-out: Minimum Inhibitory Concentration

Compound	MIC (Escherichia coli; [3])	MIC (Escherichia coli; [4])	MIC (Escherichia coli; [5])	MIC (Proteus morganii)	MIC (Enterobacter cloacae; [6])	MIC (Enterobacter cloacae; [7])	MIC (Staphylococcus aureus; [8])	MIC (Staphylococcus aureus; [9])	MIC (Staphylococcus aureus; [10])	MIC (Staphylococcus aureus; [11])	MIC (Proteus rettgeri; strain C24)	MIC (Proteus rettgeri; strain PR7)	MIC (Shigella sonnei)	MIC (Streptococcus Group A)	MIC (Serratia marcescens; [12])	MIC (Serratia marcescens; [13])	MIC (Enterobacter aerogenes; strain C32)	MIC (Enterobacter aerogenes; strain EB17)	MIC (Enterobacter aerogenes; strain X68)	MIC (Streptococcus pneumoniae)	further results
CO[C@@]1(NC(=O)Cc2cccs2)C(=O)N2C(C(=O)O)=C(CSc3nnnn3Cc3nnn[nH]3)CS[C@@H]21 [A, 7-(2-thienylacetamido)-7-methoxy-3-[1-(1H-tetrazole-5-ylmethyl)-1H-tetrazole-5-ylthiomethyl]-3-cephem-4-carboxylic acid]	4 µg/mL (≈ 7.26 µM)	8 µg/mL (≈ 14.5 µM)	4 µg/mL (≈ 7.26 µM)	64 µg/mL (≈ 116 µM)	> 128 µg/mL	> 128 µg/mL	8 µg/mL (≈ 14.5 µM)	2 µg/mL (≈ 3.63 µM)	2 µg/mL (≈ 3.63 µM)	16 µg/mL (≈ 29.1 µM)	1 µg/mL (≈ 1.82 µM)	4 µg/mL (≈ 7.26 µM)	8 µg/mL (≈ 14.5 µM)	0.5 µg/mL (≈ 0.908 µM)	64 µg/mL (≈ 116 µM)	16 µg/mL (≈ 29.1 µM)	> 128 µg/mL	> 128 µg/mL	4 µg/mL (≈ 7.26 µM)	4 µg/mL (≈ 7.26 µM)	MIC (Citrobacter freundii): > 128 µg/mL; MIC (Streptococcus Group D; strain 9960): > 128 µg/mL; MIC (Streptococcus Group D; strain X66): 64 µg/mL (≈ 116 µM); MIC (Pseudomonas aeruginosa; [14]): > 128 µg/mL; MIC (Pseudomonas aeruginosa; [15]): > 128 µg/mL; MIC (Pseudomonas aeruginosa; [16]): > 128 µg/mL; MIC [1, 17]: 16 µg/mL (≈ 29.1 µM); MIC [1, 18]: 8 µg/mL (≈ 14.5 µM); MIC (Haemophilus influenzae; strain 76, resistant strain): 0.25 µg/mL (≈ 0.454 µM); MIC (Haemophilus influenzae; strain C.L., sensitive strain): 0.25 µg/mL (≈ 0.454 µM); MIC [2]: > 128 µg/mL; MIC (Klebsiella sp.; [19]): 4 µg/mL (≈ 7.26 µM); MIC (Klebsiella sp.; [20]): 1 µg/mL (≈ 1.82 µM); MIC (Proteus inconstans): 4 µg/mL (≈ 7.26 µM); MIC (Salmonella sp.; [21]): 2 µg/mL (≈ 3.63 µM); MIC (Salmonella sp.; [22]): 1 µg/mL (≈ 1.82 µM)
Cn1nnnc1Cn1nnnc1SCC1=C(C(=O)O)N2C(=O)[C@@H](NC(=O)Cc3cccs3)[C@H]2SC1 [B]	2 µg/mL (≈ 3.74 µM)	4 µg/mL (≈ 7.48 µM)	8 µg/mL (≈ 15 µM)	64 µg/mL (≈ 120 µM)	> 128 µg/mL	> 128 µg/mL	4 µg/mL (≈ 7.48 µM)	2 µg/mL (≈ 3.74 µM)	0.5 µg/mL (≈ 0.935 µM)	32 µg/mL (≈ 59.9 µM)	8 µg/mL (≈ 15 µM)	4 µg/mL (≈ 7.48 µM)	4 µg/mL (≈ 7.48 µM)	1 µg/mL (≈ 1.87 µM)	> 128 µg/mL	> 128 µg/mL	32 µg/mL (≈ 59.9 µM)	16 µg/mL (≈ 29.9 µM)	0.5 µg/mL (≈ 0.935 µM)	2 µg/mL (≈ 3.74 µM)	MIC (Citrobacter freundii): > 128 µg/mL; MIC (Streptococcus Group D; strain 9960): 64 µg/mL (≈ 120 µM); MIC (Streptococcus Group D; strain X66): 128 µg/mL (≈ 239 µM); MIC (Pseudomonas aeruginosa; [14]): > 128 µg/mL; MIC (Pseudomonas aeruginosa; [15]): > 128 µg/mL; MIC (Pseudomonas aeruginosa; [16]): > 128 µg/mL; MIC [1, 17]: 4 µg/mL (≈ 7.48 µM); MIC [1, 18]: 4 µg/mL (≈ 7.48 µM); MIC (Haemophilus influenzae; strain 76, resistant strain): 0.5 µg/mL (≈ 0.935 µM); MIC (Haemophilus influenzae; strain C.L., sensitive strain): 1 µg/mL (≈ 1.87 µM); MIC [2]: 8 µg/mL (≈ 15 µM); MIC (Klebsiella sp.; [19]): > 128 µg/mL; MIC (Klebsiella sp.; [20]): 0.5 µg/mL (≈ 0.935 µM); MIC (Proteus inconstans): 64 µg/mL (≈ 120 µM); MIC (Salmonella sp.; [21]): 1 µg/mL (≈ 1.87 µM); MIC (Salmonella sp.; [22]): 0.5 µg/mL (≈ 0.935 µM)
O=CO[C@@H](C(=O)N[C@@H]1C(=O)N2C(C(=O)O)=C(CSc3nnnn3Cc3nnn[nH]3)CS[C@H]12)c1ccccc1 [C]	0.25 µg/mL (≈ 0.448 µM)	2 µg/mL (≈ 3.58 µM)	8 µg/mL (≈ 14.3 µM)	2 µg/mL (≈ 3.58 µM)	> 128 µg/mL	128 µg/mL (≈ 229 µM)	16 µg/mL (≈ 28.6 µM)	8 µg/mL (≈ 14.3 µM)	1 µg/mL (≈ 1.79 µM)	128 µg/mL (≈ 229 µM)	0.5 µg/mL (≈ 0.895 µM)	4 µg/mL (≈ 7.16 µM)	1 µg/mL (≈ 1.79 µM)	0.5 µg/mL (≈ 0.895 µM)	> 128 µg/mL	32 µg/mL (≈ 57.3 µM)	4 µg/mL (≈ 7.16 µM)	2 µg/mL (≈ 3.58 µM)	0.25 µg/mL (≈ 0.448 µM)	0.25 µg/mL (≈ 0.448 µM)	MIC (Citrobacter freundii): > 128 µg/mL; MIC (Streptococcus Group D; strain 9960): 128 µg/mL (≈ 229 µM); MIC (Streptococcus Group D; strain X66): > 128 µg/mL; MIC (Pseudomonas aeruginosa; [14]): > 128 µg/mL; MIC (Pseudomonas aeruginosa; [15]): > 128 µg/mL; MIC (Pseudomonas aeruginosa; [16]): > 128 µg/mL; MIC [1, 17]: 8 µg/mL (≈ 14.3 µM); MIC [1, 18]: 32 µg/mL (≈ 57.3 µM); MIC (Haemophilus influenzae; strain 251, resistant strain): 4 µg/mL (≈ 7.16 µM); MIC (Haemophilus influenzae; strain Brun, sensitive strain): 4 µg/mL (≈ 7.16 µM); MIC [2]: 16 µg/mL (≈ 28.6 µM); MIC (Klebsiella sp.; [19]): > 128 µg/mL; MIC (Klebsiella sp.; [20]): 2 µg/mL (≈ 3.58 µM); MIC (Proteus inconstans): 2 µg/mL (≈ 3.58 µM); MIC (Salmonella sp.; [21]): 2 µg/mL (≈ 3.58 µM); MIC (Salmonella sp.; [22]): 1 µg/mL (≈ 1.79 µM)
CCN1CCN(C(=O)N[C@@H](C(=O)N[C@@H]2C(=O)N3C(C(=O)O)=C(CSc4nnnn4Cc4nnn[nH]4)CS[C@H]23)c2ccc(O)cc2)C(=O)C1=O [D, 7-[α-(4-Ethylpiperazin-2,3-dione-1-ylcarbonylamino)-α-(4-hydroxyphenyl)acetamido]-3-[1-(1H-tetrazole-5-ylmethyl)-1H-tetrazole-5-ylthiomethyl]-3-cephem-4-carboxylic acid]	0.125 µg/mL (≈ 0.175 µM)	2 µg/mL (≈ 2.8 µM)	16 µg/mL (≈ 22.4 µM)	1 µg/mL (≈ 1.4 µM)	128 µg/mL (≈ 179 µM)	2 µg/mL (≈ 2.8 µM)	32 µg/mL (≈ 44.8 µM)	16 µg/mL (≈ 22.4 µM)	4 µg/mL (≈ 5.6 µM)	> 128 µg/mL	8 µg/mL (≈ 11.2 µM)	4 µg/mL (≈ 5.6 µM)	0.25 µg/mL (≈ 0.35 µM)	0.5 µg/mL (≈ 0.701 µM)	4 µg/mL (≈ 5.6 µM)	1 µg/mL (≈ 1.4 µM)	2 µg/mL (≈ 2.8 µM)	0.5 µg/mL (≈ 0.701 µM)	0.25 µg/mL (≈ 0.35 µM)	0.25 µg/mL (≈ 0.35 µM)	MIC (Citrobacter freundii): 32 µg/mL (≈ 44.8 µM); MIC (Streptococcus Group D; strain 9960): 64 µg/mL (≈ 89.7 µM); MIC (Streptococcus Group D; strain X66): 128 µg/mL (≈ 179 µM); MIC (Pseudomonas aeruginosa; [14]): 8 µg/mL (≈ 11.2 µM); MIC (Pseudomonas aeruginosa; [15]): 4 µg/mL (≈ 5.6 µM); MIC (Pseudomonas aeruginosa; [16]): 8 µg/mL (≈ 11.2 µM); MIC [1, 17]: 8 µg/mL (≈ 11.2 µM); MIC [1, 18]: 32 µg/mL (≈ 44.8 µM); MIC (Haemophilus influenzae; strain 251, resistant strain): 0.015 µg/mL (≈ 0.021 µM); MIC (Haemophilus influenzae; strain Brun, sensitive strain): 0.015 µg/mL (≈ 0.021 µM); MIC [2]: 32 µg/mL (≈ 44.8 µM); MIC (Klebsiella sp.; [19]): > 128 µg/mL; MIC (Klebsiella sp.; [20]): 1 µg/mL (≈ 1.4 µM); MIC (Proteus inconstans): 2 µg/mL (≈ 2.8 µM); MIC (Salmonella sp.; [21]): 4 µg/mL (≈ 5.6 µM); MIC (Salmonella sp.; [22]): 2 µg/mL (≈ 2.8 µM)
